From patent publication US20090227816A1, “Process for preparing polybrominated compounds” (BROMINE COMPOUNDS LTD., priority 2006, published 2009)

Format: physicochemical
Protocol: The solubility of Deca in bromine was determined as 2.64 g Deca in 100 g bromine at 20° C.

Question: For `Brc1c(Br)c(Br)c(Oc2c(Br)c(Br)c(Br)c(Br)c2Br)c(Br)c1Br` [Deca, decabromodiphenyl ether], which “solubility of Deca in bromine” value is on record?
Answer: 2.64 g Deca in 100 g bromine
